# Reference: patent US20060057071A1, “Paramagnetic complexes with pendant crown compounds showing improved targeting-specificity as MRI contrast agents” (priority 2004, published 2006)
# Read-outs that look alike come from different tables or passages of the source.
# Assays:
# [1] = Luminescence lifetime measurements for inner-sphere water molecules q (Tb complexes); type: physicochemical; details: for kH2O, absolute emission depopulation rate constant: in H2O; for kH2O, absolute emission depopulation rate constant / kH2O (Table 1), absolute emission depopulation rate constant / q, hydration state: pH 6.9 (0.1 M Tris/HCl), 298 K; for kH2O, absolute emission depopulation rate constant / kH2O (Table 1), absolute emission depopulation rate constant: ±10%; for inner-sphere coordinated (bound) water molecules: luminescent measurements, pH 6.9; for kH2O (Table 1), absolute emission depopulation rate constant: title names H2O and D2O; for q, hydration state: q^Tb = 5 (1/τH2O - 1/τD2O-0.06)
# From the text: As previously mentioned, inner-sphere proton relaxivity is linearly proportional to the number of water molecules q that are directly coordinated to the Gd^3+ center. However, there is a trade-off between the q value and toxicity. […] It is noteworthy that there is no direct method of measuring the hydration number. The two commonly used indirect methods are as follows: (1) Lanthanide-induced shift (LIS) methods (see, Alpoim et al., J. Chem. Soc., Dalton Trans., 1992, 463). For paramagnetic Ln^3+ ions, the plot of the observed ^17O shift in Ln^3+ chelate solution versus the complex concentration gives a straight line, with the slope being proportional to its hydration number. (2) The lanthanide luminescence method. According to the Horrocks equation, the q value can be calculated by the emission rate constants for the depopulation of Tb^3+ or Eu^3+ complexes measured in H2O and D2O (see, Beeby at al., J. Chem. Soc., Perkin Trans. 2, 1999, 493). With this method, the q values of the Gd^3+ complexes in aqueous solution can be measured indirectly by their corresponding Tb^3+ or Eu^3+ complexes, because of the very similar coordination behavior between these three lanthanide ions.
# Luminescence lifetime measurements were all obtained on a Perkin-Elmer LS 50B spectrofluorimeter with a 420 nm cut-off filter. The concentration of the complex was 1×10^−5˜1×10^−4 mol dm^−3. The emission of Tb^3+ or Eu^3+ complexes was monitored at […]. Gd^3+ is a neighbor of Eu^3+ and Tb^3+ with a nearly identical ionic radius, and thus their chemistries are virtually identical. Therefore, the Horrocks equation for determining the number of coordinated water molecules q for Eu^3+ and Tb^3+ is still valid for the calculation of the q value of Gd^3+. In general, the number of coordinated water molecules q can be determined by the measurement of the luminescent lifetime of the complexes separately in H2O and D2O by application of the Horrocks equation. q′corr=A′(kH2O−kD2O−a) where k is the constant for depopulation (reciprocal of luminescent lifetime), and A is a proportionality constant that signifies the sensitivity of the lanthanide ion to vibronic quenching by OH oscillators. a is correlation value for the consideration of the outer-sphere water molecules.
# [2] = Variable-temperature 17O NMR transverse relaxation rate; type: physicochemical; details: for TM / water exchange rate kex^298: 25° C.; for TM: pH 6.9, derived from VT 17O NMR spectroscopy; for exchange lifetime TM of inner-sphere coordinated water: 298 K (25° C.), 2.12 T; for q, inner-sphere coordinated water molecules: from NMRD profile / 17O NMR data, near neutral pH
# From the text: (§1) Measuring the relaxation rates of an abundant nuclear species as a function of the magnetic field over a wide range is called relaxometry. A relaxometry profile is a plot of the nuclear magnetic relaxation rate, usually 1/T1, as a function of the Larmor frequency or the magnetic field. This profile is also called a Nuclear Magnetic Resonance Dispersion (NMRD) profile. Compared with the NMRD profile, the prominent advantage of the ^17O NMR technique is that it allows the accurate determination of the water exchange rate 1/TM. This is a consequence of the oxygen nucleus being closer to the paramagnetic centre when bound in the inner-sphere, wherein the outer-sphere contributions to the relaxation rates are negligibly small. With the help of NMRD profiles, ^17O NMR measurements, and the Soloman-Bloemnergen-Morgan theory, several important parameters, such as TM, TR, TV, Δ^2 and rH, can be measured.
# The variable-temperature ^17O NMR measurements were recorded on a JEOL EX-90 (2.1 T) spectrometer that was equipped with a 5 mm probe, by using a D2O external lock. The experimental settings were: spectral width of 10000 Hz, pulse width of 7 μs, acquisition time of 10 ms, 1000 scans, and no sample spinning. Solutions containing 2.6% of ^17O isotope were used. The observed transverse relaxation rates (R2obs^O) were calculated from the signal width at half height.
# [3] = 1H NMRD profiles (water proton relaxivity); type: physicochemical; details: for D / TR / TV / a / q / r / Δ^2: 25° C., pH 6.9, fits of NMRD profile and 17O NMR
# From the text: as §1
# Water proton nuclear magnetic resonance dispersion NMRD profile is used to record the longitudinal water proton relaxation rates as a function of magnetic fields. The method is, in principle, sensitive to all of the parameters that influence relaxivity. The ^1H NMRD profiles were measured over a continuum of magnetic field strength from 0.00024 to 0.24 T (corresponding to 0.01-10 MHz proton Larmor frequency, 1 T≈41.7 MHz) on a Spinmaster FFC (Stelar, Mede (PV)), which is a fast field-cycling NMR relaxometer installed at the LIMA Laboratory (Bioindustry Park, Ivrea (TO), Italy). The relaxometer worked under complete control with an absolute uncertainty in 1/T1 of ±2%. The NMRD profiles were measured using 1-2 mM solutions of the complexes.
# [4] = cited from earlier work
# kidney cortex = test: In vivo MRI, renal intensity enhancement; design: species or system rat; details: for maximal renal intensity enhancement (IE): 0.1 mmol/kg (standard dosage), rat, first few minutes after administration
# Experimental: (§2) To study the MRI contrast and biodistribution behavior of gadolinium complexes […] pendant crown ethers, experiments were performed using male Sprague-Dawley (SD) rats that weighted 150-180 g, and were housed at the Wuhan Institute of Physical and Mathematics of the Chinese Academy of Sciences (Wuhan, Hubei Province, China). All procedures conformed to the institutional guidelines for animal welfare. The rat was injected via the femoral vein with 1 mL saline solution of GdL1 in concentrations of 0.1, 0.033, and 0.02 mM/kg, which are the standard dosage, one third and one fifth of the standard dosage used in clinic currently. MR imaging was performed on a 4.7 T Bruker BIO-SPEC-47/30 MRI scanner with a custom spiral surface coil. The animal was scanned in the prone position in the MRI experiment. […] The total duration of the dynamic scanning lasted up to 400 min after the administration, with an image every 4 min. A water tube was placed in the field of view as a phantom reference. The intensity enhancement (IE) of the region of interest (RI) at time point t is expressed by IE=100% (RI(t)-RI(0))/RI(0) where RI(t) corresponds to the normalized signal intensity as measured at time point, t and RI(0) is the normalized signal intensity precontrast.
# [5] = 1H NMRD profiles (water proton relaxivity); type: physicochemical; details: 20 MHz; for proton relaxivity r1 (r1p): 25° C., pH 6.9
# liver parenchyma = test: In vivo MRI, hepatic intensity enhancement; design: species or system rat; details: for maximal hepatic IE: 0.1 mmol/kg (standard dosage), rat
# Experimental: as §2
# MIHA cells = test: AO/EB staining, laser scanning confocal microscopy; type: cell-based; details: 10 μM, 1 h, 2 h, 8 h, 24 h incubation, 37° C.
# Experimental: MIHA cells in the absence (control) and presence of Gd-DOTA (10 μM), Gd-DO3A (10 μM), and GdL1 (10 μM) incubated at 37° C. and 5% CO2, 95% air in a humidified incubator for 1 h, 2 h, 8 h, and 24 h, respectively.
# Based on cell morphology and cell membrane integrity, normal, necrotic, and apoptotic cells can be distinguished using laser confocal microscopy. FIG. 22 gives the cell morphology in the absence and presence of Gd-DOTA (10 μM), Gd-DO3A (10 μM), and GdL1 (10 μM) at various time intervals after the incubation. In the absence or presence of the Gd^3+ complexes, the nuclei of the living cells were stained as bright blue spots in the nucleus.
# [6] = 298 K; cited from earlier work
structure (smiles),measurement,setting,value
O=C([O-])CN1CCN(CCN2CCOCCOCCOCCOCC2)CCN(CC(=O)[O-])CCN(CC(=O)[O-])CC1.[Tb+3] [TbL1],"kH2O, absolute emission depopulation rate constant",[1],0.72 ms^−1
same,inner-sphere coordinated (bound) water molecules,[1],two
same,"kH2O (Table 1), absolute emission depopulation rate constant",[1],0.34 ms^−1
same,"q, hydration state",[1],1.6
"O=C([O-])CN(CCN(CC(=O)[O-])CC(=O)O)CCN(CC(=O)[O-])CC(=O)O.[Gd+3] [Gd-DTPA, reference compound]",TM,[2],250 ns
same,D,[3],2.24E-5 cm^2s^−1
same,TR,[3],73 ps
same,TV,[3],20 ps
same,a,[3],4.0 Å
same,q,[3],1
same,r,[3],3.1 Å
same,Δ^2,[3],4.2e+19 s⁻¹
same,r1p,"[4]; 20 MHz, 298 K, typical values",4.69 mM⁻¹ s⁻¹
same,bound water molecular resident lifetime TM,"[4]; 298 K, typical values",~303 ns
"O=C([O-])CN1CCN(CCOCC2COCCOCCOCCOCCO2)CCN(CC(=O)[O-])CCN(CC(=O)[O-])CC1.[Gd+3] (stereo not shown) [GdL2, Gd^3+ complex of L2]",renal enhancement left in less than an hour,kidney cortex; 0.1 mmol/kg,30%
same,maximal renal intensity enhancement (IE),kidney cortex,135%
same,proton relaxivity r1 (r1p),[5],9.36 mM⁻¹ s⁻¹
same,outer-sphere contribution to the overall observed proton relaxivity,[5]; pH 10.0,about 50%
same,outer-sphere relaxivity,[5]; pH 10.0,2.1 mM⁻¹ s⁻¹
same,overall relaxivity,[5]; pH 10.0,4.21 mM⁻¹ s⁻¹
same,water exchange rate kex^298,[2],8.62e+06 s⁻¹
same,TM,[2],116 ns
same,exchange lifetime TM of inner-sphere coordinated water,[2],116 ns
same,"q, inner-sphere coordinated water molecules",[2],about 2
same,hepatic IE level maintained for more than 4 h,liver parenchyma; 0.1 mmol/kg,> 60%
same,time after administration of maximal hepatic IE,liver parenchyma; 0.1 mmol/kg,60 min
same,time for which strong/high hepatic IE was maintained,liver parenchyma; 0.1 mmol/kg,more than 4 h
same,maximal hepatic IE,liver parenchyma,100%
same,D,[3],2.24E-5 cm^2s^−1
same,TR,[3],140 ps
same,TV,[3],13 ps
same,a,[3],4.0 Å
same,q,[3],2
same,r,[3],2.97 Å
same,Δ^2,[3],9e+19 s⁻¹
"O=C([O-])CN1CCNCCN(CC(=O)[O-])CCN(CC(=O)[O-])CC1.[Gd+3] [Gd-DO3A, reference compound]",maximal renal intensity enhancement (IE),kidney cortex,140%
same,time after administration at which almost all renal IE was diminished,"kidney cortex; 0.1 mmol/kg, kidney cortex",120 min
same,proton relaxivity r1 (r1p),[5],5.72 mM⁻¹ s⁻¹
same,water exchange rate kex^298,[2],6.3e+06 s⁻¹
same,TM,[2],160 ns
same,exchange lifetime TM of inner-sphere coordinated water,[2],160 ns
same,cell morphology (apoptotic or necrotic cells),MIHA cells,no obvious apoptotic or necrotic cells were found
same,D,[3],2.24E-5 cm^2s^−1
same,TR,[3],66 ps
same,TV,[3],14 ps
same,a,[3],3.9 Å
same,q,[3],2
same,r,[3],3.15 Å
same,Δ^2,[3],4.6e+19 s⁻¹
same,thermodynamic stability log K,[6],22.0
"O=C([O-])CN1CCNCCN(CC(=O)[O-])CCN(CC(=O)[O-])CC1.[Tb+3] [Tb-DO3A, reference compound]","kH2O, absolute emission depopulation rate constant",[1],0.88 ms^−1
same,"kH2O (Table 1), absolute emission depopulation rate constant",[1],0.42 ms^−1
same,"q, hydration state",[1],2.0
"O=C([O-])CN1CCN(CC(=O)[O-])CCN(CC(=O)[O-])CCN(CC(=O)[O-])CC1.[Tb+3] [Tb-DOTA, reference compound]","kH2O, absolute emission depopulation rate constant",[1],0.48 ms^−1
same,"kH2O (Table 1), absolute emission depopulation rate constant",[1],0.27 ms^−1
same,"q, hydration state",[1],0.8
O=C([O-])CN1CCN(CC(=O)[O-])CCN(C(CO)C(O)CO)CCN(CC(=O)[O-])CC1.[Gd+3] (stereo not shown) [Gd[DO3A-butrol]],relaxivity,"[4]; 37° C., 20 MHz",5.6 mM⁻¹ s⁻¹
"O=C([O-])CN1CCN(CC(=O)[O-])CCN(CC(=O)N2CCOCCOCCN(Cc3ccc4ccccc4n3)CCOCCOCC2)CCN(CC(=O)[O-])CC1.[Gd+3] [GdL3, Gd^3+ complex of L3]",maximal renal intensity enhancement (IE),kidney cortex,58%
same,relaxivity,[5]; pH 7.4,4.95 mM⁻¹ s⁻¹
same,TM,[2],246 ns
same,exchange lifetime TM of inner-sphere coordinated water,[2],246 ns
same,"q, inner-sphere coordinated water molecules",[2],1
same,hepatic IE level maintained for more than 4 h,liver parenchyma; 0.1 mmol/kg,about 50%
same,time for which strong/high hepatic IE was maintained,liver parenchyma; 0.1 mmol/kg,more than 4 h
same,maximal hepatic IE,liver parenchyma,59%
same,reorientation lifetime TR,[3],210 ps
same,D,[3],2.24E-5 cm^2s^−1
same,TR,[3],210 ps
same,TV,[3],21 ps
same,a,[3],4.2 Å
same,q,[3],1
same,r,[3],3.03 Å
same,Δ^2,[3],3e+19 s⁻¹
O=C([O-])CN1CCN(CCOCC2COCCOCCOCCOCCO2)CCN(CC(=O)[O-])CCN(CC(=O)[O-])CC1.[Tb+3] (stereo not shown) [TbL2],"kH2O, absolute emission depopulation rate constant",[1],0.74 ms^−1
same,inner-sphere coordinated (bound) water molecules,[1],two
same,"kH2O (Table 1), absolute emission depopulation rate constant",[1],0.35 ms^−1
same,"q, hydration state",[1],1.7
CC(O)CN1CCN(CC(=O)[O-])CCN(CC(=O)[O-])CCN(CC(=O)[O-])CC1.[Gd+3] (stereo not shown) [Gd-[HP-DO3A]],relaxivity,"[4]; 40° C., 20 MHz",3.65 mM⁻¹ s⁻¹
O=C([O-])CN1CCN(CC(=O)[O-])CCN(CC(=O)N2CCOCCOCCN(Cc3ccc4ccccc4n3)CCOCCOCC2)CCN(CC(=O)[O-])CC1.[Tb+3] [TbL3],"kH2O, absolute emission depopulation rate constant",[1],0.50 ms^−1
same,inner-sphere coordinated (bound) water molecules,[1],one
same,"kH2O (Table 1), absolute emission depopulation rate constant",[1],0.31 ms^−1
same,"q, hydration state",[1],0.7
